The source of these data is patent US20130012491A1, “PYRIMIDINE DERIVATIVES FOR USE AS SPHINGOSINE 1-PHOSPHATE 1 (S1P1) RECEPTOR AGONISTS” (GLAXO GROUP LIMITED, priority 2010, published 2013).

Structures can show the parent of a compound that is named as a salt.

Series [1] addresses T1, S1P3 (human Endothelial Differentiation G-protein Coupled Receptor 3 (EDG3)) (Homo sapiens, UniProt Q99500).
T1 construct: expressed in transfected cells; host or cells: GeneBLAzer EDG3-Ga15-NFAT-bla HEK 293T cells
The series is described as follows: S1P3 GeneBlazer assay. Particulars: agonist, EDG3-Ga15-NFAT-bla HEK 293T cells, beta-lactamase FRET readout. The class given is cell-based. As to the method:
GeneBLAzer EDG3-Ga15-NFAT-bla HEK 293T cells (contain the human Endothelial Differentiation G-protein Coupled Receptor 3 (EDG3) and a beta-lactamase reporter gene under control of a […] response element and a promiscuous G Protein, Ga15, stably integrated into the GeneBLAzer Ga15-NFAT-bla HEK 293T cell line) were harvested from growth medium and suspended in assay medium (90% DMEM, 10% Charcoal-stripped FBS, 0.1 mM NEAA, 25 mM HEPES (pH 7.3), 100 U/ml penicillin, 100 μg/ml streptomycin) at a density of ˜200,000 cells/ml.
All test compounds were dissolved in DMSO at a concentration of 10 mM and were prepared in 100% DMSO to provide 10 point dose response curves. Test compounds prepared by Bravo (Velocity11) were added to wells in columns 2-11 and 13-22; DMSO was added to wells in columns 12 and 23 as unstimulated controls and assay medium was added to wells in columns 1 and 24 as cell-free controls. An S1P3 agonist was added to wells in row 2, columns 2-11 as stimulated controls and test compounds were added to wells in row 2, columns 13-22 and rows 3-15, columns 2-11/13-22 (row 1 and 16 were empty and not used). Compounds in solution were added to the assay plate (Greiner 781090) using an Echo (Labcyte) dose-response program (50 nl/well). The unstimulated and cell-free controls were loaded with 50 nl/well pure DMSO to ensure that the DMSO concentration was constant across the plate for all assays.
50 μl of the cell suspension was added to each well in columns 2-23 of the plate (˜10,000 cells per well). 50 μl of assay medium was added to each well in the cell-free controls (columns 1 and 24). The cells were incubated overnight at 37° C./5% CO2.
10 μl of 6× substrate mixture (LiveBLAzer™-FRET B/G substrate (CCF4-AM) Cat # K1096 from Invitrogen, Inc.) was added to each well using Bravo and the plates incubated at room temperature for 2 h in the dark. The plate was finally read on EnVision using one excitation channel (409 nm) and two emission channels (460 nm and 530 nm).
The blue/green emission ratio (460 nm/530 nm) was calculated for each well, by dividing the background-subtracted Blue emission values by the background-subtracted Green emission values. The dose response curve is based on sigmoidal dose-response model. All ratio data was normalized based upon the maximum emission ratio of positive control and minimum emission ratio of negative control (DMSO) on each plate. The intrinsic activity (IA) of each compound would be the normalized percentage of its maximum response after curve fitting.

The next series concerns circulating lymphocytes. Particulars: animals and man; cited from earlier work.
Series [2] concerns animal models of immune disorders. Particulars: cited from earlier work.
For series [3] the following is noted: clinical studies, first 24 hours of treatment; cited from earlier work.
In a further series the test system is S1P3 knock-out animals. Particulars: unlike wild type mice; cited from earlier work.

T1 sequence (Q99500 whole entry): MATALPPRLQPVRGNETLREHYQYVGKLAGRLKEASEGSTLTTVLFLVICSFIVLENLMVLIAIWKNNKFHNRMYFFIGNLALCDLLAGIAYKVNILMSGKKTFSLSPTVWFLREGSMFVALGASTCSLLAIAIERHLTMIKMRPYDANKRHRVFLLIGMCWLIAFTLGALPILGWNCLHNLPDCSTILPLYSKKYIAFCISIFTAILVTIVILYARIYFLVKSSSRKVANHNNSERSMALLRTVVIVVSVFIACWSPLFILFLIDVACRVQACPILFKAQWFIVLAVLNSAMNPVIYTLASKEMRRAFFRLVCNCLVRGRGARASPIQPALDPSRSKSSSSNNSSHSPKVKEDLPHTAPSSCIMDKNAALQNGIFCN

With `CCc1c(CCN2CCCC(C(=O)O)C2)cccc1-c1cnc(-c2ccc(CC(C)C)c(C#N)c2)nc1` (stereo not shown) [Example 38, 1-[2-(3-{2-[3-cyano-4-(2-methylpropyl)phenyl]-5-pyrimidinyl}-2-ethylphenyl)ethyl]-3-piperidinecarboxylic acid], in series [1], the EC50 (commonly the midpoint of the concentration-response curve) is at most 10 µM.

Consider `CCc1c(CCN2CCC(C(=O)O)CC2)cccc1-c1cnc(-c2ccc(OC(C)C)c(Cl)c2)nc1` [Example 33, 1-{2-[3-(2-{3-chloro-4-[(1-methylethyl)oxy]phenyl}-5-pyrimidinyl)-2-ethylphenyl]ethyl}-4-piperidinecarboxylic acid], for which the EC50 in series [1] is at most 2 µM. In the case of `CCc1c(CCN2CC(C(=O)O)C2)cccc1-c1cnc(-c2ccc(OC(C)C)c(Cl)c2)nc1` [Example 28, N-{2-[3-(2-{3-chloro-4-[(1-methylethyl)oxy]phenyl}-5-pyrimidinyl)-2-ethylphenyl]ethyl}-3-azetidinecarboxylic acid], the EC50 in series [1] is at most 2 µM. For the compound `CCCCCCCCc1ccc(CCC(N)(CO)CO)cc1` [FTY720], the “effect on circulating lymphocytes” value in the series with circulating lymphocytes is “reduce circulating lymphocytes”. In addition, the disease modulating activity entry in series [2] is on record as “disease modulating activity”. Further, the values for the bradycardia result (in series [3]; in the series with S1P3 knock-out animals) were “results in bradycardia” and “do not demonstrate bradycardia”, respectively.

In series [1], `CCc1c(CCN2CC(C(=O)O)C2)cccc1-c1cnc(-c2ccc(CC(C)C)c(C#N)c2)nc1` [Example 36, 1-[2-(3-{2-{3-cyano-4-(2-methylpropyl)phenyl}-5-pyrimidinyl}-2-ethylphenyl)ethyl]-3-azetidinecarboxylic acid] gave an EC50 of at most 10 µM.

Take `CCc1c(-c2cnc(-c3ccc(OC(C)C)c(Cl)c3)nc2)cccc1C1CCN(CCC(=O)O)CC1` [Example 15, 3-{4-[3-(2-{3-chloro-4-[(1-methylethyl)oxy]phenyl}-5-pyrimidinyl)-2-ethylphenyl]-1-piperidinyl}propanoic acid trifluoroacetate]: in series [1], the EC50 is at most 10 µM. On the same count and under the same terms, the value for `CCc1c(CCN2CC[C@H](C(=O)O)C2)cccc1-c1cnc(-c2ccc(OC(C)C)c(Cl)c2)nc1` [Example 30, (3S)-1-{2-[3-(2-{3-chloro-4-[(1-methylethyl)oxy]phenyl}-5-pyrimidinyl)-2-ethylphenyl]ethyl}-3-pyrrolidinecarboxylic acid] was at most 2 µM. On the same count and under the same terms, the figure for `CCc1c(CNCCC(=O)O)cccc1-c1cnc(-c2ccc(OC(C)C)c(C(F)(F)F)c2)nc1` [Example 10, N-[(2-ethyl-3-{2-[4-[(1-methylethyl)oxy]-3-(trifluoromethyl)phenyl]-5-pyrimidinyl}phenyl)methyl]-b-alanine] is at most 2 µM.

The compound `CCc1c(CCN2CCC[C@H](C(=O)O)C2)cccc1-c1cnc(-c2ccc(OC(C)C)c(Cl)c2)nc1` [Example 32, (3S)-1-{2-[3-(2-{3-chloro-4-[(1-methylethyl)oxy]phenyl}-5-pyrimidinyl)-2-ethylphenyl]ethyl}-3-piperidinecarboxylic acid] gave a concentration for a half-maximal effect (EC50) in series [1] of at most 10 µM.

Compound `CCc1c(CCN2CCC[C@H](C(=O)O)C2)cccc1-c1cnc(-c2ccc(CC(C)C)c(C#N)c2)nc1` [Example 39, (3S)-1-[2-(3-{2-[3-cyano-4-(2-methylpropyl)phenyl]-5-pyrimidinyl}-2-ethylphenyl)ethyl]-3-piperidinecarboxylic acid] showed an EC50 in series [1] of at most 10 µM.

Consider `CCc1c(CCN2CCC(C(=O)O)CC2)cccc1-c1cnc(-c2ccc(CC(C)C)c(C#N)c2)nc1` [Example 40, 1-[2-(3-{2-[3-cyano-4-(2-methylpropyl)phenyl]-5-pyrimidinyl}-2-ethylphenyl)ethyl]-4-piperidinecarboxylic acid], for which the EC50 in series [1] was at most 2 µM.

Compound `CCc1c(CN2CC(C(=O)O)C2)cccc1-c1cnc(-c2ccc(OC(C)C)c(C(F)(F)F)c2)nc1` [Example 11, 1-[(2-ethyl-3-{2-[4-[(1-methylethyl)oxy]-3-(trifluoromethyl)phenyl]-5-pyrimidinyl}phenyl)methyl]-3-azetidinecarboxylic acid] had an EC50 in series [1] of at most 10 µM. For `CCc1c(CCN2CCC(C(=O)O)C2)cccc1-c1cnc(-c2ccc(CC(C)C)c(C#N)c2)nc1` (stereo not shown) [Example 37, 1-[2-(3-{2-[3-cyano-4-(2-methylpropyl)phenyl]-5-pyrimidinyl}-2-ethylphenyl)ethyl]-3-pyrrolidinecarboxylic acid], the EC50 in series [1] was at most 10 µM. The same measure, in the same setting: the value for `CCc1c(CCN(C)CC(=O)O)cccc1-c1cnc(-c2ccc(CC(C)C)c(C#N)c2)nc1` [Example 34, N-[2-(3-{2-[3-cyano-4-(2-methylpropyl)phenyl]-5-pyrimidinyl}-2-ethylphenyl)ethyl]-N-methylglycine trifluoroacetate] was at most 10 µM; that for `CCc1c(CCN(C)CC(=O)O)cccc1-c1cnc(-c2ccc(OC(C)C)c(Cl)c2)nc1` [Example 27, N-{2-[3-(2-{3-chloro-4-[(1-methylethyl)oxy]phenyl}-5-pyrimidinyl)-2-ethylphenyl]ethyl}-N-methylglycine] was at most 10 µM; that for `CCc1c(CCN(C)CCC(=O)O)cccc1-c1cnc(-c2ccc(CC(C)C)c(C#N)c2)nc1` [Example 35, N-[2-(3-{2-[3-cyano-4-(2-methylpropyl)phenyl]-5-pyrimidinyl}-2-ethylphenyl)ethyl]-N-methyl-b-alanine] was at most 10 µM.

In series [1], `CCc1c(CCN2CCC(C(=O)O)C2)cccc1-c1cnc(-c2ccc(OC(C)C)c(Cl)c2)nc1` (stereo not shown) [Example 29, 1-{2-[3-(2-{3-chloro-4-[(1-methylethyl)oxy]phenyl}-5-pyrimidinyl)-2-ethylphenyl]ethyl}-3-pyrrolidinecarboxylic acid] gave an EC50 of at most 2 µM. Same read-out and setting: the value for `CCc1c(CCN2CCCC(C(=O)O)C2)cccc1-c1cnc(-c2ccc(OC(C)C)c(Cl)c2)nc1` (stereo not shown) [Example 31, 1-{2-[3-(2-{3-chloro-4-[(1-methylethyl)oxy]phenyl}-5-pyrimidinyl)-2-ethylphenyl]ethyl}-3-piperidinecarboxylic acid] was at most 10 µM; that for `CCc1c(CN2CCC(C(=O)O)CC2)cccc1-c1cnc(-c2ccc(OC(C)C)c(C(F)(F)F)c2)nc1` [Example 13, 1-[(2-ethyl-3-{2-[4-[(1-methylethyl)oxy]-3-(trifluoromethyl)phenyl]-5-pyrimidinyl}phenyl)methyl]-4-piperidinecarboxylic acid] was at most 10 µM.
